# Assay results as given in patent US20240360178A1, “MACROCYCLIC IMMUNOMODULATORS” (Bristol-Myers Squibb Company, priority 2021, published 2024).
# Positions of bridges follow the written chain, without caps; N, C: chain ends. Non-standard residues stand in square brackets, D forms with d. Residues, ends and D or L forms follow the SMILES beside them. ξ: configuration not given here. *: point of attachment. Phe(4-COOH) = N[C@@H](Cc1ccc(C(=O)O)cc1)C(=O)O; Phe(4-CH2NH2) = NCc1ccc(C[C@H](N)C(=O)O)cc1; Bip = N[C@@H](Cc1ccc(-c2ccccc2)cc1)C(=O)O; Phe(2-Cl) = N[C@@H](Cc1ccccc1Cl)C(=O)O; NMeF = CN[C@@H](Cc1ccccc1)C(=O)O; ξW = NC(Cc1c[nH]c2ccccc12)C(=O)O; 4Pal = N[C@@H](Cc1ccncc1)C(=O)O; Cit = NC(=O)NCCC[C@H](N)C(=O)O; Phg = N[C@H](C(=O)O)c1ccccc1; Carboxymethyl = O=C(O)C*; NMeA = CN[C@@H](C)C(=O)O; Nle = CCCC[C@H](N)C(=O)O; Orn = NCCC[C@H](N)C(=O)O; Sar = CNCC(=O)O
# Target: T1, human PD-1 (Jurkat-PD-1 cells) / PE-labeled human PD-L1-Ig (Homo sapiens, UniProt Q15116)
# T1 construct: expressed in transfected cells; host or cells: Jurkat cell line over-expressing human PD-1
# T1 sequence (Q15116 25-288): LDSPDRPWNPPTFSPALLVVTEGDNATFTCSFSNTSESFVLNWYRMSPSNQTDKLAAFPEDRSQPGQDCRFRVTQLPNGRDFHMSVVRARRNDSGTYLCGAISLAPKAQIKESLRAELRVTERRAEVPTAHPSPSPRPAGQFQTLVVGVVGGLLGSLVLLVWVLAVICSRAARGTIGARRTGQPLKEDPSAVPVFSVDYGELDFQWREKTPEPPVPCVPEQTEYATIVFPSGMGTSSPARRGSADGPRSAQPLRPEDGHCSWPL
# Assay: Jurkat-PD-1 Cell Binding High-Content Screening Assay (CBA); Jurkat hPD1-PDL1 assay
# Details: Jurkat cell line over-expressing human PD-1; PE-labeled PD-L1-Ig 20 nM final; compound incubated 2 hours at 37° C.; read-out: Jurkat HPD1-PDL1 IC50
# Procedure, shortened: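 Binding of phycoerythrin-conjugated PD-L1-Ig (20 nM final) to PD-1-overexpressing Jurkat cells was read by high-content imaging. Cells in DMEM/10% FCS were exposed to compound for 2 hours at 37° C before labeled ligand was added.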
row,Structure (SMILES),IC50
1,CC(C)C[C@@H]1NC(=O)[C@H](CCCNC(=N)N)NC(=O)[C@H](Cc2ccccc2)N(C)C(=O)[C@H](C)N(C)C(=O)[C@H](CCCNC(=N)N)NC(=O)[C@H](Cc2ccc(-c3ccccc3)cc2)NC(=O)[C@H](C(C)C)NC(=O)[C@H](Cc2c[nH]c3ccccc23)NC(=O)[C@H](CC(=O)O)NC(=O)[C@H](Cc2ccc(O)cc2)NC(=O)[C@H](CC(N)=O)NC(=O)CSC[C@@H](C(=O)N[C@@H](C)C(N)=O)NC(=O)[C@H](CCCN)NC(=O)[C@H](C(C)C)NC1=O [Example 1373] ({CH2CO}-NYDWV[Bip]R[NMeA][NMeF]RLV[Orn]CA-NH2; thioether N-14),180 nM
2,CCCC[C@@H]1NC(=O)[C@H](C(C)C)NC(=O)[C@H](Cc2ccccc2)N(C)C(=O)[C@H](CC(=O)O)NC(=O)[C@H](CCC(=O)O)NC(=O)[C@H](Cc2ccc(-c3ccccc3)cc2)NC(=O)[C@H](C(C)C)NC(=O)[C@H](Cc2c[nH]c3ccccc23)NC(=O)[C@H](CC(=O)O)NC(=O)[C@H](Cc2ccc(O)cc2)NC(=O)[C@H](Cc2ccccc2)NC(=O)CSC[C@@H](C(=O)NCC(N)=O)NC(=O)[C@H](CCCNC(=N)N)NC(=O)[C@H](C(C)C)NC1=O [Example 1191] ({CH2CO}-FYDWV[Bip]ED[NMeF]V[Nle]VRCG-NH2; thioether N-14),690 nM
3,CC(C)C[C@@H]1NC(=O)[C@H](CCCNC(=N)N)NC(=O)[C@H](Cc2ccccc2)N(C)C(=O)[C@H](C)N(C)C(=O)[C@H](CCCNC(=N)N)NC(=O)[C@H](Cc2ccc(-c3ccccc3)cc2)NC(=O)[C@H](C(C)C)NC(=O)[C@H](Cc2c[nH]c3ccccc23)NC(=O)[C@H](CC(=O)O)NC(=O)[C@H](Cc2ccc(O)cc2)NC(=O)[C@H](Cc2ccc(CN)cc2)NC(=O)CSC[C@@H](C(=O)NCC(N)=O)NC(=O)[C@H](CO)NC(=O)[C@H](C(C)C)NC1=O [Example 1256] ({CH2CO}-[Phe(4-CH2NH2)]YDWV[Bip]R[NMeA][NMeF]RLVSCG-NH2; thioether N-14),340 nM
4,CC(C)C[C@@H]1NC(=O)C(Cc2c[nH]c3ccccc23)NC(=O)[C@H](CC(=O)O)NC(=O)[C@H](Cc2ccc(O)cc2)NC(=O)[C@H](Cc2ccccc2)NC(=O)CSC[C@@H](C(=O)NCC(N)=O)NC(=O)[C@H](CO)NC(=O)[C@H](C(C)C)NC(=O)[C@H](CC(C)C)NC(=O)[C@H](CCCNC(=N)N)NC(=O)CN(C)C(=O)[C@H](C)N(C)C(=O)[C@H](CCCNC(=N)N)NC(=O)[C@H](Cc2ccc(-c3ccccc3)cc2)NC1=O (stereo partly shown) [Example 1231] ({CH2CO}-FYD[ξW]L[Bip]R[NMeA][Sar]RLVSCG-NH2; thioether N-14),900 nM
5,CC(C)C[C@@H]1NC(=O)[C@H](CCCNC(=N)N)NC(=O)[C@H](Cc2ccccc2)N(C)C(=O)[C@H](C)N(C)C(=O)[C@H](CCCNC(N)=O)NC(=O)[C@H](Cc2ccc(-c3ccccc3)cc2)NC(=O)[C@H](C(C)C)NC(=O)[C@H](Cc2c[nH]c3ccccc23)NC(=O)[C@H](CC(=O)O)NC(=O)[C@H](Cc2ccc(O)cc2)NC(=O)[C@H](CC(N)=O)NC(=O)CSC[C@@H](C(=O)NCC(N)=O)NC(=O)[C@H](CO)NC(=O)[C@H](C(C)C)NC1=O [Example 1381] ({CH2CO}-NYDWV[Bip][Cit][NMeA][NMeF]RLVSCG-NH2; thioether N-14),160 nM
6,CC(C)C[C@@H]1NC(=O)[C@H](CCCNC(=N)N)NC(=O)[C@H](Cc2ccccc2)N(C)C(=O)[C@H](C)N(C)C(=O)[C@H](CCCNC(=N)N)NC(=O)[C@H](Cc2ccc(-c3ccccc3)cc2)NC(=O)[C@H](c2ccccc2)NC(=O)[C@H](Cc2c[nH]c3ccccc23)NC(=O)[C@H](CC(=O)O)NC(=O)[C@H](Cc2ccc(O)cc2)NC(=O)[C@H](Cc2ccccc2)NC(=O)CSC[C@@H](C(=O)NCC(N)=O)NC(=O)[C@H](CO)NC(=O)[C@H](C(C)C)NC1=O [Example 1334] ({CH2CO}-FYDW[Phg][Bip]R[NMeA][NMeF]RLVSCG-NH2; thioether N-14),430 nM
7,CC(C)C[C@@H]1NC(=O)[C@H](CCCNC(=N)N)NC(=O)[C@H](Cc2ccccc2)N(C)C(=O)[C@H](C)N(C)C(=O)[C@H](CCCNC(=N)N)NC(=O)[C@H](Cc2ccc(-c3ccccc3)cc2)NC(=O)[C@H](C(C)C)NC(=O)[C@H](Cc2c[nH]c3ccccc23)NC(=O)[C@H](CC(=O)O)NC(=O)[C@H](Cc2ccc(O)cc2)NC(=O)[C@H](CCC(=O)O)NC(=O)CSC[C@@H](C(=O)NCC(N)=O)NC(=O)[C@H](CO)NC(=O)[C@H](C(C)C)NC1=O [Example 1210] ({CH2CO}-EYDWV[Bip]R[NMeA][NMeF]RLVSCG-NH2; thioether N-14),600 nM

# Results, then the compound that gave them:
row,IC50,Structure (SMILES)
1,940 nM,CC(C)C[C@@H]1NC(=O)[C@H](Cc2ccccc2Cl)NC(=O)[C@H](CC(=O)O)NC(=O)[C@H](Cc2ccc(O)cc2)NC(=O)[C@H](Cc2ccccc2)NC(=O)CSC[C@@H](C(=O)N[C@@H](C)C(N)=O)NC(=O)[C@H](CO)NC(=O)[C@H](C(C)C)NC(=O)[C@H](CC(C)C)NC(=O)[C@H](CC(N)=O)NC(=O)CN(C)C(=O)[C@H](C)N(C)C(=O)[C@H](C(C)C)NC(=O)[C@H](Cc2ccc(-c3ccccc3)cc2)NC1=O [Example 1170] ({CH2CO}-FYD[Phe(2-Cl)]L[Bip]V[NMeA][Sar]NLVSCA-NH2; thioether N-14)
2,40 nM,CC(C)C[C@@H]1NC(=O)[C@H](Cc2c[nH]c3ccccc23)NC(=O)[C@H](CC(=O)O)NC(=O)[C@H](Cc2ccc(C(=O)O)cc2)NC(=O)[C@H](Cc2ccccc2)NC(=O)CSC[C@@H](C(=O)N[C@@H](C)C(N)=O)NC(=O)[C@H](CO)NC(=O)[C@H](C(C)C)NC(=O)[C@H](CC(C)C)NC(=O)[C@H](CC(N)=O)NC(=O)[C@H]2CCCN2C(=O)[C@H](C)N(C)C(=O)[C@H](C(C)C)NC(=O)[C@H](Cc2ccc(-c3ccccc3)cc2)NC1=O [Example 1020] ({CH2CO}-F[Phe(4-COOH)]DWL[Bip]V[NMeA][dP]NLVSCA-NH2; thioether N-14)
3,40 nM,CC(C)C[C@@H]1NC(=O)[C@H](Cc2c[nH]c3ccccc23)NC(=O)[C@H](CC(=O)O)NC(=O)[C@H](Cc2ccc(OCC(=O)O)cc2)NC(=O)[C@H](Cc2ccncc2)NC(=O)CSC[C@@H](C(=O)N[C@@H](C)C(N)=O)NC(=O)[C@H](CO)NC(=O)[C@H](C(C)C)NC(=O)[C@H](CC(C)C)NC(=O)[C@H](CC(N)=O)NC(=O)[C@H]2CCCN2C(=O)[C@H](C)N(C)C(=O)[C@H](C(C)C)NC(=O)[C@H](Cc2ccc(-c3ccccc3)cc2)NC1=O [Example 1391] ({CH2CO}-[4Pal]Y(Carboxymethyl)DWL[Bip]V[NMeA][dP]NLVSCA-NH2; thioether N-14)
4,540 nM,CC(C)C[C@@H]1NC(=O)[C@H](Cc2c[nH]c3ccccc23)NC(=O)[C@H](CC(=O)O)NC(=O)[C@H](Cc2ccc(O)cc2)NC(=O)[C@H](Cc2ccccc2)NC(=O)CSC[C@@H](C(=O)N[C@@H](C)C(N)=O)NC(=O)[C@H](CO)NC(=O)[C@H](C(C)C)NC(=O)[C@H](CC(C)C)NC(=O)[C@H](CCCCN)NC(=O)CN(C)C(=O)[C@H](C)N(C)C(=O)[C@H](CCC(=O)O)NC(=O)[C@H](Cc2ccc(-c3ccccc3)cc2)NC1=O [Example 1134] ({CH2CO}-FYDWL[Bip]E[NMeA][Sar]KLVSCA-NH2; thioether N-14)
5,40 nM,CC(C)C[C@@H]1NC(=O)[C@H](Cc2c[nH]c3ccccc23)NC(=O)[C@H](CC(=O)O)NC(=O)[C@H](Cc2ccc(O)cc2)NC(=O)[C@H](Cc2ccncc2)NC(=O)CSC[C@@H](C(=O)N[C@@H](C)C(N)=O)NC(=O)[C@H](CO)NC(=O)[C@H](C(C)C)NC(=O)[C@H](CC(C)C)NC(=O)[C@H](CC(N)=O)NC(=O)[C@H]2CCCN2C(=O)[C@H](C)N(C)C(=O)[C@H](C(C)C)NC(=O)[C@H](Cc2ccc(-c3ccccc3)cc2)NC1=O [Example 1023] ({CH2CO}-[4Pal]YDWL[Bip]V[NMeA][dP]NLVSCA-NH2; thioether N-14)
6,560 nM,CC(C)C[C@@H]1NC(=O)[C@H](Cc2c[nH]c3ccccc23)NC(=O)[C@H](CC(=O)O)NC(=O)[C@H](Cc2ccc(O)cc2)NC(=O)[C@H](Cc2ccccc2)NC(=O)CSC[C@@H](C(=O)N[C@@H](C)C(N)=O)NC(=O)[C@H](CCC(N)=O)NC(=O)[C@H](C(C)C)NC(=O)[C@H](CC(C)C)NC(=O)[C@H](CC(N)=O)NC(=O)CN(C)C(=O)[C@H](C)N(C)C(=O)[C@H](C(C)C)NC(=O)[C@H](Cc2ccc(-c3ccccc3)cc2)NC1=O [Example 1136] ({CH2CO}-FYDWL[Bip]V[NMeA][Sar]NLVQCA-NH2; thioether N-14)
7,220 nM,CC(C)C[C@@H]1NC(=O)[C@H](CCCCN)NC(=O)[C@H](Cc2ccccc2)N(C)C(=O)[C@H](C)N(C)C(=O)[C@H](CCCNC(=N)N)NC(=O)[C@H](Cc2ccc(-c3ccccc3)cc2)NC(=O)[C@H](C(C)C)NC(=O)[C@H](Cc2c[nH]c3ccccc23)NC(=O)[C@H](CC(=O)O)NC(=O)[C@H](Cc2ccc(O)cc2)NC(=O)[C@H](CC(N)=O)NC(=O)CSC[C@@H](C(=O)N[C@@H](C)C(N)=O)NC(=O)[C@H]([C@@H](C)O)NC(=O)[C@H](C(C)C)NC1=O [Example 1384] ({CH2CO}-NYDWV[Bip]R[NMeA][NMeF]KLVTCA-NH2; thioether N-14)
8,760 nM,CC(C)C[C@@H]1NC(=O)[C@H](Cc2c[nH]c3ccccc23)NC(=O)[C@H](CC(=O)O)NC(=O)[C@H](Cc2cnc[nH]2)NC(=O)[C@H](Cc2ccccc2)NC(=O)CSC[C@@H](C(=O)NCC(N)=O)NC(=O)[C@H](CO)NC(=O)[C@H](C(C)C)NC(=O)[C@H](CC(C)C)NC(=O)[C@H](CC(N)=O)NC(=O)CN(C)C(=O)[C@H](C)N(C)C(=O)[C@H](C(C)C)NC(=O)[C@H](Cc2ccc(-c3ccccc3)cc2)NC1=O [Example 1153] ({CH2CO}-FHDWL[Bip]V[NMeA][Sar]NLVSCG-NH2; thioether N-14)
9,700 nM,CC(C)C[C@@H]1NC(=O)[C@H](Cc2c[nH]c3ccccc23)NC(=O)[C@H](CC(=O)O)NC(=O)[C@H](Cc2ccc(O)cc2)NC(=O)[C@H](Cc2ccccc2)NC(=O)CSC[C@@H](C(=O)N[C@H](C)C(N)=O)NC(=O)[C@H](CO)NC(=O)[C@H](C(C)C)NC(=O)[C@H](CC(C)C)NC(=O)[C@H](CC(N)=O)NC(=O)CN(C)C(=O)[C@H](C)N(C)C(=O)[C@H](C(C)C)NC(=O)[C@H](Cc2ccc(-c3ccccc3)cc2)NC1=O [Example 1151] ({CH2CO}-FYDWL[Bip]V[NMeA][Sar]NLVSC[dA]-NH2; thioether N-14)
